# Source: patent publication US20250170114A1, “METHODS OF TREATMENT USING T-TYPE CALCIUM CHANNEL MODULATORS” (Praxis Precision Medicines, Inc., priority 2022, published 2025)
# Entries after “also recorded” stand apart in the source; their conditions may differ.
# How the values were obtained:
# [1] = test system: harmaline-induced tremor in male SD rats; assay: Tremor assessment (tremor score 0-4) with harmaline in SD rats; type: in vivo, rat; conditions: harmaline 30 mg/kg, 10 mg/kg
# From the text: Each of six groups of male SD rats were subjected to a tremor assessment, followed by three ADL-like measures including open field test, rotarod test, and wire grip test after receiving doses of either vehicle, Formula (I), or propranolol, followed by either saline or harmaline, as outlined below in Table 22 below. Twenty minutes after administration of harmaline or saline, the rats were subjected to a tremor assessment using the score criteria outlined in the table below.
# [2] = Plasma and brain tissue concentrations in rats after harmaline testing; type: in vivo, rat; conditions: collected immediately after harmaline testing
# Description: Plasma and brain tissue sample collection (at 90 min post dosing of study compound) was evaluated in […]. N=15 in each group. Plasma and brain tissue samples were collected immediately after harmaline testing. Plasma sample number: 5×15=75. Brain tissue sample number: 5×15=75.
# [3] = test system: rat spontaneous locomotor activity (sLMA); assay: Rat spontaneous locomotor activity (sLMA) assay; type: in vivo; conditions: rats, 0-30 min; compound of Formula (I) 1 mg/kg p.o., propranolol 1 or 3 mg/kg i.p., alone or in combination
# Description: […] Rat sLMA was measured from 0-30 min (0 minutes is 60 minutes after administration of the compound of Formula (I) and 20 minutes after administration of propranolol).
# [4] = test system: harmaline-induced motor impairment in male SD rats; assay: Rotarod test with harmaline in SD rats; type: in vivo, rat; conditions: harmaline 30 mg/kg, 10 mg/kg
# Description: (§1) Each of six groups of male SD rats were subjected to a tremor assessment, followed by three ADL-like measures including open field test, rotarod test, and wire grip test after receiving doses of either vehicle, Formula (I), or propranolol, followed by either saline or harmaline, as outlined below in Table 22 below.
# Fifteen minutes after the open field test, the rats were subjected to a rotarod test. The speed of the rotarod increased from 10 rpms to 60 rpms within the first five minutes of the test. FIG. 9 is a bar graph showing the mean of latency to fall in the rotarod test measured in rats that were administered 30 mg/kg harmaline and also administered 10 mg/kg propranolol or 1 mg/kg, 3 mg/kg or 10 mg/kg study drug.
# [5] = test system: harmaline-induced motor impairment in male SD rats; assay: Wire grip test with harmaline in SD rats; type: in vivo, rat; conditions: harmaline 30 mg/kg, 10 mg/kg, reference compound
# From the text: as §1
# Fifteen minutes after the rotarod test, rats were subjected to a wire grip test using an 80 cm long and 7 mm in diameter wire placed at a height of 50 cm.
# [6] = test system: harmaline-induced decrease in travelling distance in male SD rats; assay: Open field test with harmaline in SD rats; type: in vivo, rat; conditions: harmaline 30 mg/kg, 10 mg/kg
# Description: as §1
# Fifteen minutes after the tremor assessment, the rats were subjected to an open field test. FIG. 8 is a bar graph showing the traveling distance in 0-5 minutes (mm) measured in rats that were administered 30 mg/kg harmaline and also administered 10 mg/kg propranolol or 1 mg/kg, 3 mg/kg or 10 mg/kg study drug.
smiles,measurement,setting,value
"CC(C)NCC(O)COc1cccc2ccccc12 (stereo not drawn) [propranolol, reference compound]",average tremor score vs vehicle and harmaline only,[1],significantly lower; also recorded: significantly inhibited
same,plasma and brain concentrations,[2],consistent with those measured in previous studies
same,total sLMA (total distance travelled),[3],do not significantly reduce
same,latency to fall in rotarod test vs vehicle and harmaline only,[4],failed to display any significant improvement; also recorded: no effect
same,latency to fall in wire grip test,[5],significant reduction in motor impairment; also recorded: significantly attenuated
same,harmaline-induced decrease in spontaneous locomotor activity in the open field,[6],no effect
